{"source": "patent US10350244B2", "about": "“Pharmaceutical composition for the treatment of diseases in which LPS- and/or apoptosis regulation is disturbed” (priority 2013, dated 2019)", "type_in_all_cases": "cell-based, human", "key": {"[1]": {"system": "monocytes from the blood of patients with CRC", "experiment": "Gene expression in MNC/monocytes from blood of CRC patients (RT-qPCR)", "conditions": "monocytes from blood of CRC patients UICC I to IV, 12-hour incubation, synergism in UICC I-III, FIG. 5", "experimental": "(§1) After collection, EDTA tubes were left to stand at room temperature (RT) for 60 min. Thereafter, serum was removed, divided into portions (1 ml/tube) and stored in −80° C. The blood was centrifuged at 311 g for 10 min. Thereafter, 1 part whole blood+5 parts lysis buffer were mixed, left to stand at RT for 15 min and then centrifuged at 311 g for 10 min. The supernatant was discarded and the pellet was washed with RPMI 1640 medium (repeated 3×). The cells were then counted and frozen at −170° C. in nitrogen at 5×10^6/ml (freezing medium: RPMI 1640 medium containing 5% DMSO, dimethyl sulfoxide=cryopreservation). In addition, the immune status was measured from one tube (FACS analysis, see below).\nRNA was extracted from MNCs and homogenized tumor tissue using the RNA Extraction Kit (Qiagen, Hilden, Germany), washed in DEPC 75% ethanol solution and then stored at −70° C. until it was processed further. The amount of RNA was determined by measuring absorption at 260 nm. The 260:280 ratio was determined within the 1.8-2.0 range; it was thus possible to prevent a contamination of the RNA by proteins. […]\nThe ‘real-time reverse transcription polymerase chain reaction’ method (real-time RT-PCR for short) is used for determining the expression of various genes. Said method allows the quantification of the expression of a gene in question in relation to the control genes. […]"}, "[2]": {"system": "MNC", "experiment": "IGF-1 protein determination (ELISA) in MNC incubations", "source_text": "(§2) Peripheral blood mononuclear cells (PBMC, i.e., mononuclear cells (MNC)). This refers to mononuclear blood cells which have a round cell nucleus. These are, for example, lymphocytes and monocytes. Said cells play an important role in the immune system in controlling infections. PBMC or MNC are frequently employed in diagnostics as an indicator for infections which are present, as a factor for prognosing the course of an HIV infection and in clinical research. From the blood and sera collection of the tumor tissue bank and the tumor cells of an individual tumor patient that were likewise stored in said bank, they were, after passing through a specific thawing/revitalization procedure, examined for their protein and gene expression, apoptosis behavior and their released messenger substances (cytokine profiles) under the influence of the colostrum preparation Lactobin® N, vitamin D3 and also the combination in a specifically selected repertoire of methods.\nThe examinations were carried out in order to detect the cytokine insulin-like growth factor 1 (IGF-1) present in the samples. To this end, use was made of enzyme-linked immunosorbent assay (ELISA) sets (from Biosource International, California, USA) in accordance with the protocol instructions from the manufacturer. 50 μl of standard sample, control and the samples were pipetted per well into 96-well plates coated with anti-IGF-1. Thereafter, 50 μl of biotin conjugate (second antibody against IGF-1) were added. Subsequently, the plates were incubated at room temperature for 90 min, washed four times, and 100 μl of streptavidin-HRP working solution were pipetted into the wells and the plate was incubated at room temperature for 45 min. Thereafter, the plates were again washed four times, 100 μl of stabilized chromogen were added and incubated at room temperature for 30 min. Lastly, 100 μl of stop solution were pipetted. The results were read off on the ELISA reader at 450 nm (Dynatech Laboratories, Sullyfield, USA).\nTo prepare a preparation according to the invention, the above-described colostrum powder (preferably Lactobin N) was admixed with an appropriate amount of the vitamin D3-containing powder, achieving the inventive concentration of vitamin D3. A mixing ratio used according to the invention was 0.2 mg of the vitamin D3-containing powder per gram of colostrum powder (0.2 mg/g). This yielded 0.5 μg of vitamin D3/g of ready-made preparation for the samples. A recommended daily dose is 10 g of ready-made preparation, i.e., 5 μg of vitamin D3. […] Similarly, only the vitamin D3 preparation was used when the samples were treated only with vitamin D3 (e.g., “Vit. D3” in Table 1)."}, "[3]": {"system": "MNC", "experiment": "Cytokine production by MNC after incubation (Luminex immunobead multiplex assay)", "source_text": "as §2, §1\nThe cryotube to be thawed was removed from the nitrogen and immediately transferred to a 37° C. water bath. Once the cells had detached from the inner wall of the cryotube (1-1.5 min), they were transferred to a sterile 50 ml Falcon tube containing 40 ml of cold medium. After a 5-minute centrifugation at 400 g, the medium was removed, the cell pellet was resuspended in 6 ml of warmed-up medium and the cells were counted. […]\nInterleukin (IL)-12 and proinflammatory factors such as […], IL-6, IFN-γ, TNF-α and anti-inflammatory factors such as IL-10 and IL-13 in the serum samples were measured in duplicate using an immunobead-based multiplex assay. The assays were carried out on a Bio-Plex system (Biosource).\nThe microspheres coated with mixtures of corresponding capture antibodies and the labeled detection antibodies were purchased from Biosource (Camarillo, […]). The reagents had already been tested and qualified by the manufacturer to rule out a cross-reactivity of the antibody-coated microspheres.\nThe Luminex measurements were carried out in order to determine further expressed MNC cytokines. 25 μl of antibody-coated microspheres were added to 96-well plates [mixture of the cytokines GM-CSF, IFN-γ, IL-1β, IL-2, IL-4, IL-5, IL-6, IL-8, IL-10 and TNF-α; ready-prepared kit, from Biosource International, California, USA]. After washing had been carried out twice, 50 μl of incubation buffer, 50 μl of ready-prepared sample dilution and 50 μl of sample were pipetted into each well. The plates were incubated in the dark on a shaker for 2 hours at room temperature and again washed twice. Thereafter, 100 μl of the biotinylated detection antibody were added to each well, incubated in the dark on a shaker for a further hour at room temperature, and again washed twice. 100 μl of SAV-RPE (R-phycoerythrin fluorescent dye, from Biosource International) were pipetted into each well, the plates were again shaken in the dark for 30 min at room temperature and washed three times. Each assay preparation was adjusted with 100 μl of wash buffer per well as the final volume and the plates were measured in the Luminex reader (Luminex 100, from Luminex Applied Systems, Sheffield, UK). […]"}, "[4]": {"conditions": "MNC of CRC patients UICC I (n = 6)"}, "[5]": {"conditions": "MNC of CRC patients UICC II (n = 6)"}, "[6]": {"conditions": "MNC of CRC patients UICC III (n = 6)"}, "[7]": {"conditions": "MNC of CRC patients UICC IV (n = 6)"}}, "data": [{"smiles": "C=C1CC[C@H](O)C/C1=C/C=C1\\CCC[C@]2(C)[C@@H]([C@H](C)CCCC(C)C)CC[C@@H]12", "note": "[Vit D3, cholecalciferol]", "values": [{"measurement": "expression of the IGF-1 gene in MNC", "setting": "[1]", "value": "drop in the gene expression profile"}, {"measurement": "IGF-1", "setting": "[2]; [4]", "value": 148.6, "unit": "ng/mL"}, {"measurement": "IGF-1", "setting": "[2]; [5]", "value": 213.4, "unit": "ng/mL"}, {"measurement": "IGF-1", "setting": "[2]; [6]", "value": 299.1, "unit": "ng/mL"}, {"measurement": "IGF-1", "setting": "[2]; [7]", "value": 896.4, "unit": "ng/mL"}, {"measurement": "IGF-1", "setting": "[2]; MNC of Control (n = 6)", "value": 90.3, "unit": "ng/mL"}, {"measurement": "IFN-γ", "setting": "[3]; [4]", "value": 58.5, "unit": "pg/mL"}, {"measurement": "IL-1β", "setting": "[3]; [4]", "value": 42.5, "unit": "pg/mL"}, {"measurement": "IL-6", "setting": "[3]; [4]", "value": 98.7, "unit": "pg/mL"}, {"measurement": "IL-10", "setting": "[3]; [4]", "value": 18.3, "unit": "pg/mL"}, {"measurement": "IL-12", "setting": "[3]; [4]", "value": 74.9, "unit": "pg/mL"}, {"measurement": "IL-13", "setting": "[3]; [4]", "value": 30.1, "unit": "pg/mL"}, {"measurement": "TNF-α", "setting": "[3]; [4]", "value": 83.6, "unit": "pg/mL"}, {"measurement": "IFN-γ", "setting": "[3]; [5]", "value": 77.3, "unit": "pg/mL"}, {"measurement": "IL-1β", "setting": "[3]; [5]", "value": 34.8, "unit": "pg/mL"}, {"measurement": "IL-6", "setting": "[3]; [5]", "value": 102.8, "unit": "pg/mL"}, {"measurement": "IL-10", "setting": "[3]; [5]", "value": 18.1, "unit": "pg/mL"}, {"measurement": "IL-12", "setting": "[3]; [5]", "value": 80.1, "unit": "pg/mL"}, {"measurement": "IL-13", "setting": "[3]; [5]", "value": 27.9, "unit": "pg/mL"}, {"measurement": "TNF-α", "setting": "[3]; [5]", "value": 169.1, "unit": "pg/mL"}, {"measurement": "IFN-γ", "setting": "[3]; [6]", "value": 215.9, "unit": "pg/mL"}, {"measurement": "IL-1β", "setting": "[3]; [6]", "value": 169.4, "unit": "pg/mL"}, {"measurement": "IL-6", "setting": "[3]; [6]", "value": 91.7, "unit": "pg/mL"}, {"measurement": "IL-10", "setting": "[3]; [6]", "value": 17.9, "unit": "pg/mL"}, {"measurement": "IL-12", "setting": "[3]; [6]", "value": 214.7, "unit": "pg/mL"}, {"measurement": "IL-13", "setting": "[3]; [6]", "value": 26.1, "unit": "pg/mL"}, {"measurement": "TNF-α", "setting": "[3]; [6]", "value": 331.5, "unit": "pg/mL"}, {"measurement": "IFN-γ", "setting": "[3]; [7]", "value": 292.5, "unit": "pg/mL"}, {"measurement": "IL-1β", "setting": "[3]; [7]", "value": 369.9, "unit": "pg/mL"}, {"measurement": "IL-6", "setting": "[3]; [7]", "value": 213.1, "unit": "pg/mL"}, {"measurement": "IL-10", "setting": "[3]; [7]", "value": 7.9, "unit": "pg/mL"}, {"measurement": "IL-12", "setting": "[3]; [7]", "value": 499.9, "unit": "pg/mL"}, {"measurement": "IL-13", "setting": "[3]; [7]", "value": 9.1, "unit": "pg/mL"}, {"measurement": "TNF-α", "setting": "[3]; [7]", "value": 413.1, "unit": "pg/mL"}, {"measurement": "IFN-γ", "setting": "[3]; MNC of Control (n = 6)", "value": 12.8, "unit": "pg/mL"}, {"measurement": "IL-1β", "setting": "[3]; MNC of Control (n = 6)", "value": 4.8, "unit": "pg/mL"}, {"measurement": "IL-6", "setting": "[3]; MNC of Control (n = 6)", "value": 3.3, "unit": "pg/mL"}, {"measurement": "IL-10", "setting": "[3]; MNC of Control (n = 6)", "value": 27.9, "unit": "pg/mL"}, {"measurement": "IL-12", "setting": "[3]; MNC of Control (n = 6)", "value": 47.7, "unit": "pg/mL"}, {"measurement": "IL-13", "setting": "[3]; MNC of Control (n = 6)", "value": 43.6, "unit": "pg/mL"}, {"measurement": "TNF-α", "setting": "[3]; MNC of Control (n = 6)", "value": 62.6, "unit": "pg/mL"}]}]}
